The target of series [1] is Aldo-keto reductase family 1 member B1 (Rattus norvegicus, UniProt P07943). The series is described as follows: Inhibition of Wistar rat lens ALR2 using L-glyceraldehyde as substrate preincubated for 10 mins followed by substrate addition and measured for 4 mins by spectrophotometric method.
A further series is filed under the species Rattus norvegicus. The series is described as follows: Selectivity index, ratio of IC50 for Wistar rat kidney ALR1 to IC50 for Wistar rat lens ALR2.
Series [2] concerns the target Aldo-keto reductase family 1 member A1 (Rattus norvegicus, UniProt P51635). The series is described as follows: Inhibition of Wistar rat kidney ALR1 using sodium D-glucuronate as substrate preincubated for 10 mins followed by substrate addition and measured for 4 mins by spectrophotometric method.
The nature of series [3]: Antioxidant activity assessed as DPPH radical scavenging activity at 5 uM relative to control. It is filed as functional. (In general: Loss of DPPH colour is used to gauge radical scavenging.)
A short description of series [4]: Antioxidant activity assessed as DPPH radical scavenging activity at 1 uM relative to control. It is filed as functional.
Series [5] relates to Brain. The series is described as follows: Antioxidant activity in rat brain homogenate assessed as inhibition of FeCl2/ascorbic acid-induced lipid peroxidation by measuring reduction in TBARS level at 100 uM measured after 30 mins by spectrophotometric method relative to control. Type of series: functional, tissue-based.
A short description of series [6]: Antioxidant activity assessed as DPPH radical scavenging activity at 100 uM relative to control. It is filed as functional.
The nature of series [7]: Antioxidant activity assessed as DPPH radical scavenging activity at 10 uM relative to control. Type of series: functional.
Series [8] is described as follows: Antioxidant activity assessed as DPPH radical scavenging activity at 50 uM relative to control. It is filed as functional.
Series [9] has as its system Brain. The series is described as follows: Antioxidant activity in rat brain homogenate assessed as inhibition of FeCl2/ascorbic acid-induced lipid peroxidation by measuring reduction in TBARS level at 50 uM measured after 30 mins by spectrophotometric method relative to control. It is filed as functional, tissue-based.
Series [10] in a line: Octanol-buffer partition coefficient, log D of the compound at pH 7.4 measured after 24 hrs by HPLC based shake flask assay. It is filed as physicochemical.
For series [11], the target named is Aldo-keto reductase family 1 member B1 (Rattus norvegicus) (UniProt P07943). The series is described as follows: Inhibition of Wistar rat lens ALR2 at 100 uM using L-glyceraldehyde as substrate preincubated for 10 mins followed by substrate addition and measured for 4 mins by spectrophotometric method relative to control.
Series [12] shares this target. The series is described as follows: Inhibition of Wistar rat lens ALR2 at 10 uM using L-glyceraldehyde as substrate preincubated for 10 mins followed by substrate addition and measured for 4 mins by spectrophotometric method relative to control.

pIC50: −log10 of the molar value.

Usually pIC50 stands for the IC50 on a negative log10 scale, so that one unit is a factor of ten. Read a high pIC50 as a low IC50. Usually inhibition stands for the change of the read-out against control, counted positive when it falls. The logD is the decadic logarithm of the distribution of all forms, ionised or not, between an organic phase and buffer at a given pH. High values mean a more lipophilic compound, low ones a more hydrophilic compound.

Chain of Aldo-keto reductase family 1 member A1 (P51635 whole entry, looked up): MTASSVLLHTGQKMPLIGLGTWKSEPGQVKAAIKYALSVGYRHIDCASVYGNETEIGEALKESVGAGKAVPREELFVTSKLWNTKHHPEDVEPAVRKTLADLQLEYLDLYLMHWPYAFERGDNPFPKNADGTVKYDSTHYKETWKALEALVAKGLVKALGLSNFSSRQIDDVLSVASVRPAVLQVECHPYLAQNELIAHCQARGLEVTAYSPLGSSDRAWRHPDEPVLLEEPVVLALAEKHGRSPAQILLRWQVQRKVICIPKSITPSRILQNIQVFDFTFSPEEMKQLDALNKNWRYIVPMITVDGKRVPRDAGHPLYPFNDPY

`CS(=O)(=O)NC(=O)Cn1c(=O)c(/C=C/c2ccccc2)nc2ccccc21` gave a pIC50 in series [1] of 4.45.
In the case of `O=C(Cn1c(=O)c(/C=C/c2ccc(F)cc2)nc2ccccc21)NS(=O)(=O)C(F)(F)F`, the values for the negative-log IC50 (pIC50) in [1] and in [2] were 4.85 and 4.53, respectively. Further, the Ratio IC50 in the series filed under Rattus norvegicus is 2.05.
Take `O=C(Cn1c(=O)c(-c2ccc(O)c(O)c2)nc2ccccc21)NS(=O)(=O)C(F)(F)F`: the Activity in series [3] was determined as 46%; in [4], 6.8%; in series [6], 92.3%; in series [7] it was 81.4%; in [8], 89.6%. The pIC50 in series [1] was 5.33; in series [2] it was 4.24. The Ratio IC50 in the series filed under Rattus norvegicus was 12.5. In addition, the inhibition with Brain [5] turned out to be 58.7%.
As for `O=C(Cn1c(=O)c(/C=C/c2ccc(O)c(O)c2)nc2ccccc21)NS(=O)(=O)C(F)(F)F`, the inhibition in the series on Brain [9] came out at 39%; in the series with Brain [5], 73.5%. In addition, the Activity in series [3] worked out at 51.9%; in series [4], 11%; in series [7] it was 82.1%. For the same compound, the pH-dependent lipophilicity (logD) at 24 h in series [10] is -1.08. Moreover, the pIC50 in series [1] was 7.00; in series [2], 5.04. In addition, the Ratio IC50 in the series listed under Rattus norvegicus amounted to 91.6.
As to `COc1cc(/C=C/c2nc3ccccc3n(CC(=O)O)c2=O)ccc1O`, the Activity came out at 21.1% in series [3], 94% in series [6], 44.4% in series [7] and 73.6% in series [8]. In addition, the logD at 24 h in [10] was -2.66. In the series on Brain [5], the inhibition worked out at 56.1%.
Turning to `O=C(O)Cn1c(=O)c(/C=C/c2ccc(O)c(O)c2)nc2ccccc21`, the Activity was 21.8% in series [3], 95.4% in series [6], 46% in [7] and 89.2% in series [8]. Moreover, in series [10], the logD at 24 h is -2.59. Also, the inhibition in the series with Brain [5] turned out to be 59.5%.
Turning to `O=C(Cn1c(=O)c(Oc2ccc(O)cc2)nc2ccccc21)NS(=O)(=O)C(F)(F)F`, the negative logarithm of the IC50 (pIC50) is 4.99 in series [1] and 4.13 in series [2]. In addition, the Ratio IC50 in the series filed under Rattus norvegicus came out at 7.26. Also, the inhibition with Brain [5] is 12.3%. In addition, the Activity in [6] came out at 8.1%.
`COc1ccc(-c2nc3ccccc3n(CC(=O)NS(=O)(=O)C(F)(F)F)c2=O)cc1OC` had a negative-log IC50 (pIC50) in series [1] of 4.41.
With `O=C(Cn1c(=O)c(/C=C/c2ccc(O)cc2)nc2ccccc21)NS(=O)(=O)C(F)(F)F`, the logD at 24 h in series [10] amounted to 1.73. For the same compound, the negative-log IC50 (pIC50) is 6.20 in series [1] and 4.56 in [2]. The Ratio IC50 in the series filed under Rattus norvegicus is 44.2. For the same compound, the inhibition in the series with Brain [5] was 38.6%. Moreover, the values for the Activity in series [6], in series [7] and in series [8] were 56.2%, 13.2% and 38.9%, respectively.
Consider `O=C(Cn1c(=O)c(Oc2ccccc2)nc2ccccc21)NS(=O)(=O)C(F)(F)F`, for which the negative-log IC50 (pIC50) in series [1] was 4.27.
On the same count and under the same terms, then `O=C(Cn1c(=O)c(Oc2ccc(F)cc2)nc2ccccc21)NS(=O)(=O)C(F)(F)F`, with 4.42; and `COc1ccc(Oc2nc3ccccc3n(CC(=O)NS(=O)(=O)C(F)(F)F)c2=O)cc1`, with 4.26.
As to `O=C(Cn1c(=O)c(/C=C/c2ccccc2)nc2ccccc21)NS(=O)(=O)C(F)(F)F`, the pH-dependent lipophilicity (logD) at 24 h in [10] is 2.88. Besides, the negative-log IC50 (pIC50) in series [1] was 5.20; in series [2], 4.52. Besides, the Ratio IC50 in the series filed under Rattus norvegicus was determined as 4.68. Further, the inhibition in the series on Brain [5] came out at 20.6%. Also, the Activity in series [6] worked out at 58.5%; in series [7], 6.4%; in series [8] it was 35.1%.
`CS(=O)(=O)NC(=O)Cn1c(=O)c(Oc2ccccc2)nc2ccccc21`: in [11], the inhibition turned out to be 41.7%.
`O=C(Cn1c(=O)c(Oc2ccc(Cl)cc2)nc2ccccc21)NS(=O)(=O)C(F)(F)F` showed a pIC50 in series [1] of 4.39.
Consider `CS(=O)(=O)NC(=O)Cn1c(=O)c(-c2ccccc2)nc2ccccc21`, for which, in [11], the inhibition amounted to 35.9%.
In series [1], `O=C(Cn1c(=O)c(-c2ccccc2)nc2ccccc21)NS(=O)(=O)C(F)(F)F` gave a negative logarithm of the IC50 (pIC50) of 4.12.
Consider `Cc1c(C)c2c(c(C)c1O)CCC(C)(C(=O)O)O2` (stereo not given), for which the inhibition was determined as 36.6% with Brain [9] and 74.1% with Brain [5]. The Activity in [3] came to 39.3%; in [4], 8.2%; in series [6], 96.5%; in series [7] it was 77.9%; in series [8], 94.7%.
In series [1], `O=C(Cn1c(=O)c(Oc2ccc(Br)cc2)nc2ccccc21)NS(=O)(=O)C(F)(F)F` showed a pIC50 of 4.13.
For the compound `NC(=O)Cn1c(=O)c(/C=C/c2ccccc2)nc2ccccc21`, the inhibition in series [12] was 24.6%.
With `O=C(O)Cn1c(=O)c(/C=C/c2ccc(O)cc2)nc2ccccc21`, the logD at 24 h in [10] is -1.63.
`O=C(Cn1c(=O)c(-c2ccc(F)cc2)nc2ccccc21)NS(=O)(=O)C(F)(F)F` gave a pIC50 in [1] of 4.14.
`O=C(O)Cn1c(=O)c(/C=C/c2ccccc2)nc2ccccc21` yielded a logD at 24 h in series [10] of 0.05.
On to `O=C(Cn1c(=O)c(-c2ccc(C(F)(F)F)cc2)nc2ccccc21)NS(=O)(=O)C(F)(F)F`, for which, in series [1], the pIC50 is 4.47.
The compound `NC(=O)Cn1c(=O)c(/C=C/c2ccc(F)cc2)nc2ccccc21` had an inhibition in series [12] of 26.5%.
As to `O=C(Cn1c(=O)c(-c2ccc(O)cc2)nc2ccccc21)NS(=O)(=O)C(F)(F)F`, the pIC50 in series [1] is 4.63.
Take `COc1ccc(/C=C/c2nc3ccccc3n(CC(=O)NS(=O)(=O)C(F)(F)F)c2=O)cc1OC`: the negative logarithm of the IC50 (pIC50) in series [1] was 4.80; in series [2], 4.37. Besides, the Ratio IC50 in the series filed under Rattus norvegicus was determined as 2.67.
With `COc1cc(/C=C/c2nc3ccccc3n(CC(=O)NS(=O)(=O)C(F)(F)F)c2=O)ccc1O`, the Activity in [3] is 27.7%; in series [6], 89.8%; in series [7], 52.2%; in series [8], 81.9%. Further, the logD at 24 h in series [10] worked out at 1.05. In addition, the negative logarithm of the IC50 (pIC50) in [1] is 5.48; in series [2] it was 4.62. Moreover, the Ratio IC50 in the series filed under Rattus norvegicus turned out to be 7.3. In addition, the inhibition in the series with Brain [5] was determined as 61.9%.

(Values after ChEMBL document CHEMBL4400570, “Designing of acyl sulphonamide based quinoxalinones as multifunctional aldose reductase inhibitors” (Bioorg Med Chem, 2019).)
